Test results: patent publication US20170267708A1, “C-4" POSITION SUBSTITUTED MACROLIDE DERIVATIVE” (priority 2014, published 2017)
Values after ≈ are worked out from the molar mass of the structure shown. Read-outs that look alike come from different tables or passages of the source.

Columns and labels:
[1] = system: 39 kinds of clinically isolated strains of Hemophilus influenzae; test: Hemophilus influenzae susceptibility test; format: cell-based; conditions: 39 clinically isolated strains
Experimental: (§1) In vitro antibacterial activities of the compound of the present invention, the compound represented by the formula [1] of Example 1, against various test bacteria were measured according to the microbroth dilution method (CLSI method). The activities of the compound of Reference Example 4 represented by the formula [3] was similarly measured. The MIC values (minimum inhibitory concentration, μg/ml) for the test bacteria of the bacterium symbols A, B, C, D, E, F, G, H, I, J, K, and L are shown in Table 2.
Drug susceptibility of 39 kinds of clinically isolated strains of Hemophilus influenzae was evaluated in the same manner as that of Test Example 1.

[2] = system: Streptococcus pneumoniae 1101 strain; test: Therapeutic effect test in erythromycin resistant pneumococcus (harboring erm(B) gene)-infected animals; format: in vivo, mice; conditions: for number of living cells in the lung: CBA/JN mice, 3 days after inoculation, average±standard error
Experimental: As a bacterium, the Streptococcus pneumoniae 1101 strain (clinically isolated strain) was used. A frozen stock of the strain used was added to the Todd Hewitt broth supplemented with 30 vol % inactivated horse serum, and the bacterium was cultured until the turbidity (OD600) became about 0.3. The culture medium was diluted with the Todd Hewitt broth supplemented with 30 vol % inactivated horse serum to prepare a bacterial suspension for inoculation. The bacterial suspension for inoculation (0.05 mL each) was intranasally administered to mice (CBA/JN, male, 5 weeks old) for infection. The inoculated bacterial amount was 7.50×10^4 CFU/mouse, or 1.65×10^5 CFU/mouse. From the next day of the inoculation, the compound of Example 1 represented by the formula [1] […] The numbers of live cells in the lung observed 3 days after the inoculation are shown in FIG. 2 (each group consisted of 5 or 6 mice, average±standard error).
(§2) The notes for FIG. 2 are as follows. As for significant difference relative to the medium administration group, significance was determined by the Steel test, and the symbols * and ** mean p<0.05 and p<0.01, respectively.

[3] = system: Haemophilus influenzae ATCC 43095 strain; test: Therapeutic effectiveness in Haemophilus influenzae-infected animals; format: in vivo, mice; conditions: for number of living cells in the lung: ICR mice, 3 days after inoculation, average±standard error
Experimental: As a bacterium, the Haemophilus influenzae ATCC 43095 strain (bacterium symbol A) was used. Cells of the bacterium cultured overnight on a chocolate agar medium were collected, suspended in a Hemophilus susceptibility test medium or the brain heart infusion medium supplemented with Fildes Enrichment, and then cultured overnight. The culture was diluted with the Hemophilus susceptibility test medium or the brain heart infusion medium supplemented with Fildes Enrichment to prepare a bacterial suspension for inoculation. The bacterial suspension for inoculation (0.05 mL each) was intratracheobronchially administered to mice (ICR, male, 4 weeks old) for infection. The inoculated bacterial amount was 2.25×10^6 CFU/mouse, or 9.00×10^5 CFU/mouse. From the next day of the inoculation, the compound represented by the formula [1] of Example 1 (100 and 200 mg/kg) or a medium (mixture of equivalent volumes of a 0.1 mol/L lactobionic acid solution and a 0.5 w/v % sodium hydrogencarbonate solution) was orally administered to the mice once a day for 2 days. The numbers of living cells in the lung observed 3 days after the inoculation are shown in FIG. 1 (each group consisted of 6 mice, average±standard error).
The notes for FIG. 1 are as follows. As for significant difference relative to the medium administration group, significance was determined by the Steel test, and the symbols * and ** mean p<0.05 and p<0.01, respectively. The MIC value of the compound of Example 1 represented by the formula [I] was 4 μg/mL, and the MIC value of the compound of Reference Example 4 represented by the formula [3] was 4 μg/mL.
In the following descriptions, the numbers of living cells in the lung as the test results may be represented in terms of common logarithm of number of live cells in the lung (CFU/lung) (common logarithm is henceforth indicated as log).

[4] = system: Streptococcus aureus ATCC29213; test: In vitro antibacterial activity, microbroth dilution (CLSI method); format: cell-based; conditions: bacterium symbol L
Experimental: as §1

[5] = system: Streptococcus pyogenes ATCC12344; test: as above; format: cell-based; conditions: bacterium symbol I
Experimental: as §1

[6] = system: Streptococcus pyogenes MSC07812; test: as above; format: cell-based; conditions: bacterium symbol J
Experimental: as §1

[7] = system: Streptococcus pneumoniae MSC08607; test: as above; format: cell-based; conditions: bacterium symbol F
Experimental: as §1

[8] = system: Haemophilus influenzae NSC17960; test: as above; format: cell-based; conditions: bacterium symbol C
Experimental: as §1

[9] = system: Streptococcus pneumoniae MSC07465; test: as above; format: cell-based; conditions: bacterium symbol E
Experimental: as §1

[10] = system: Haemophilus influenzae ATCC43095; test: as above; format: cell-based; conditions: for MIC: Haemophilus influenzae, ATCC43095
Experimental: as §1

[11] = system: Streptococcus pneumoniae MSC07365; test: as above; format: cell-based; conditions: bacterium symbol H
Experimental: as §1

[12] = system: Streptococcus pyogenes MSC07811; test: as above; format: cell-based; conditions: bacterium symbol K
Experimental: as §1

[13] = system: Haemophilus influenzae MSC17946; test: as above; format: cell-based; conditions: bacterium symbol B
Experimental: as §1

[14] = system: Streptococcus pneumoniae ATCC49619; test: as above; format: cell-based; conditions: bacterium symbol D
Experimental: as §1

[15] = system: Streptococcus pneumoniae ATCC700904; test: as above; format: cell-based; conditions: bacterium symbol G
Experimental: as §1

[16] = system: Streptococcus pneumoniae 1028 strain; test: MIC against the strain of Test Example 5; format: cell-based; conditions: notes for FIG. 3, mef(A) strain
Experimental: (§3) The notes for FIG. 3 are as follows. As for significant difference relative to the medium administration group, significance was determined by the Steel test, and the symbols * and ** mean p<0.05 and p<0.01, respectively.

[17] = system: Streptococcus pneumoniae 1028 strain; test: Therapeutic effect test in erythromycin resistant pneumococcus (harboring mef(A) gene)-infected animals; format: in vivo, mice; conditions: for number of living cells in the lung: CBA/JN mice, 3 days after inoculation
Experimental: As a bacterium, the Streptococcus pneumoniae 1028 strain (clinically isolated strain) was used. A frozen stock of the strain used was added to the Todd Hewitt broth supplemented with 30 vol % inactivated horse serum, and the bacterium was cultured until the turbidity (OD600) became about 0.3. The culture was diluted with the Todd Hewitt broth supplemented with 30 vol % inactivated horse serum to prepare a bacterial suspension for inoculation. The bacterial suspension for inoculation (0.05 mL each) was intranasally administered to mice (CBA/JN, male, 5 weeks old) for infection. The inoculated bacterial amount was 3.45×10^4 CFU/mouse, or 3.90×10^4 CFU/mouse. From the next day of the inoculation, the compound of Example 1 represented by the formula [1] (3, 10, 30 and 100 mg/kg) or a medium (mixture of equivalent volumes of a 0.1 mol/L lactobionic acid solution and a 0.5 w/v % sodium hydrogencarbonate solution) was orally administered to the mice once a day for 2 days. The numbers of living cells in the lung observed 3 days after the inoculation are shown in FIG. 3 (each group consisted of 5 or 6 mice, average±standard error).
as §3

[18] = system: Streptococcus pneumoniae 1101 strain; test: MIC against the strain of Test Example 4; format: cell-based; conditions: notes for FIG. 2, erm(B) strain
Experimental: as §2

[19] = 30 mg/kg orally once a day for 2 days
[20] = 100 mg/kg orally once a day for 2 days
[21] = 200 mg/kg orally once a day for 2 days
[22] = 10 mg/kg orally once a day for 2 days, average±standard error
[23] = 30 mg/kg orally once a day for 2 days, 1.30 = lower than detection limit
[24] = 100 mg/kg orally once a day for 2 days, 1.30 = lower than detection limit

CC[C@H]1OC(=O)[C@H](C)[C@@H](O[C@H]2C[C@@](C)(OC)[C@@](O)(CN(C)CCN(CC)CC)[C@H](C)O2)[C@H](C)[C@@H](O[C@@H]2O[C@H](C)C[C@H](N(C)C)[C@H]2O)[C@@](C)(OC)C[C@@H](C)C(=O)[C@H](C)[C@H]2N(CCCS(C)(=O)=O)C(=O)O[C@]12C [Reference Example 4, reference compound]
MIC50 [1]: 4 µg/mL (≈ 3.86 µM) | MIC90 [1]: 8 µg/mL (≈ 7.73 µM) | number of living cells in the lung ([2]; 10 mg/kg orally once a day for 2 days): 5.86±0.12 log (CFU/lung) | number of living cells in the lung [2, 19]: 5.22±0.16 log (CFU/lung) | number of living cells in the lung [2, 20]: 3.65±0.36 log (CFU/lung) | number of living cells in the lung [3, 20]: 4.37±0.27 log (CFU/lung) | number of living cells in the lung [3, 21]: 2.53±0.23 log (CFU/lung) | MIC ([4]; Streptococcus, ATCC29213, read-out: MIC (minimum inhibitory concentration)): 0.5 µg/mL (≈ 0.483 µM) | MIC ([5]; Streptococcus pyogenes, ATCC12344, read-out: MIC (minimum inhibitory concentration)): 0.06 µg/mL (≈ 0.0579 µM) | MIC ([6]; Streptococcus pyogenes, MSC07812, read-out: MIC (minimum inhibitory concentration)): 0.25 µg/mL (≈ 0.241 µM) | MIC ([7]; Streptococcus pneumoniae, MSC08607, read-out: MIC (minimum inhibitory concentration)): 0.06 µg/mL (≈ 0.0579 µM) | MIC ([8]; Haemophilus influenzae, NSC17960, read-out: MIC (minimum inhibitory concentration)): 4 µg/mL (≈ 3.86 µM) | MIC ([9]; Streptococcus pneumoniae, MSC07465, read-out: MIC (minimum inhibitory concentration)): 0.03 µg/mL (≈ 0.029 µM) | MIC ([10]; bacterium symbol A, read-out: MIC (minimum inhibitory concentration)): 4 µg/mL (≈ 3.86 µM) | MIC ([10]; notes for FIG. 1, strain of Test Example 3, read-out: MIC value): 4 µg/mL (≈ 3.86 µM) | MIC ([11]; Streptococcus pneumoniae, MSC07365, read-out: MIC (minimum inhibitory concentration)): 4 µg/mL (≈ 3.86 µM) | MIC ([12]; Streptococcus pyogenes, MSC07811, read-out: MIC (minimum inhibitory concentration)): 4 µg/mL (≈ 3.86 µM) | MIC ([13]; Haemophilus influenzae, MSC17946, read-out: MIC (minimum inhibitory concentration)): 8 µg/mL (≈ 7.73 µM) | MIC ([14]; Streptococcus pneumoniae, ATCC49619, read-out: MIC (minimum inhibitory concentration)): 0.03 µg/mL (≈ 0.029 µM) | MIC ([15]; Streptococcus pneumoniae, ATCC700904, read-out: MIC (minimum inhibitory concentration)): 0.12 µg/mL (≈ 0.116 µM) | MIC ([16]; Streptococcus pneumoniae, 1028STRAIN): 0.03 µg/mL (≈ 0.029 µM) | number of living cells in the lung [17, 22]: 5.67±0.38 log (CFU/lung) | number of living cells in the lung [17, 23]: 1.30±0.00 log (CFU/lung) | number of living cells in the lung [17, 24]: 1.30±0.00 log (CFU/lung) | MIC ([18]; Streptococcus pneumoniae, 1101STRAIN): 0.12 µg/mL (≈ 0.116 µM)

CCNC(=O)CN1C(=O)O[C@]2(C)[C@@H](CC)OC(=O)[C@H](C)[C@@H](O[C@H]3C[C@@](C)(OC)[C@@](O)(CN(C)CCN(C(C)C)C(C)C)[C@H](C)O3)[C@H](C)[C@@H](O[C@@H]3O[C@H](C)C[C@H](N(C)C)[C@H]3O)[C@@](C)(OC)C[C@@H](C)C(=O)[C@H](C)[C@@H]12 [Example 1]
MIC50 [1]: 4 µg/mL (≈ 3.89 µM) | MIC90 [1]: 8 µg/mL (≈ 7.78 µM) | number of living cells in the lung [2, 19]: 4.14±0.19 log (CFU/lung) | number of living cells in the lung [2, 20]: 2.28±0.24 log (CFU/lung) | therapeutic effectiveness relative to the compound of Reference Example 4 ([2]; overall conclusion of Test Example 4): superior | number of living cells in the lung [3, 20]: 3.54±0.49 log (CFU/lung) | number of living cells in the lung [3, 21]: 2.83±0.53 log (CFU/lung) | therapeutic effectiveness relative to the compound of Reference Example 4 ([3]; overall conclusion of Test Example 3): comparable | MIC (minimum inhibitory concentration) [4]: 1 µg/mL (≈ 0.972 µM) | MIC (minimum inhibitory concentration) [5]: 0.06 µg/mL (≈ 0.0583 µM) | MIC (minimum inhibitory concentration) [6]: 0.12 µg/mL (≈ 0.117 µM) | MIC (minimum inhibitory concentration) [7]: 0.06 µg/mL (≈ 0.0583 µM) | MIC (minimum inhibitory concentration) [8]: 4 µg/mL (≈ 3.89 µM) | MIC (minimum inhibitory concentration) [9]: 0.03 µg/mL (≈ 0.0292 µM) | MIC (minimum inhibitory concentration) ([10]; bacterium symbol A): 4 µg/mL (≈ 3.89 µM) | MIC value ([10]; notes for FIG. 1, strain of Test Example 3): 4 µg/mL (≈ 3.89 µM) | MIC (minimum inhibitory concentration) [11]: 4 µg/mL (≈ 3.89 µM) | MIC (minimum inhibitory concentration) [12]: 2 µg/mL (≈ 1.94 µM) | MIC (minimum inhibitory concentration) [13]: 8 µg/mL (≈ 7.78 µM) | MIC (minimum inhibitory concentration) [14]: 0.06 µg/mL (≈ 0.0583 µM) | MIC (minimum inhibitory concentration) [15]: 0.12 µg/mL (≈ 0.117 µM) | MIC value [16]: 0.12 µg/mL (≈ 0.117 µM) | number of living cells in the lung ([17]; 3 mg/kg orally once a day for 2 days, average±standard error): 6.45±0.18 log (CFU/lung) | number of living cells in the lung [17, 22]: 1.30±0.00 log (CFU/lung) | number of living cells in the lung [17, 23]: 1.30±0.00 log (CFU/lung) | number of living cells in the lung [17, 24]: 1.30±0.00 log (CFU/lung) | therapeutic effectiveness relative to the compound of Reference Example 4 ([17]; overall conclusion of Test Example 5): superior | MIC value [18]: 0.25 µg/mL (≈ 0.243 µM)
